Usually IC50 stands for the concentration that gives 50% inhibition. Low readings indicate higher potency, high ones lower potency.

SMILES strings stand for the structures. Some results are limits rather than exact numbers.

For this test, the target named is PDE1B (Homo sapiens, UniProt Q01064). Kind of test: In vitro HTRF PDE1 inhibition assay (PDE1B). It is filed as biochemical. Particulars: Table 22. From the text:
An exemplary procedure for the in vitro Homogenous Time Resolved Fluorescence assay, which can be used to determine the inhibitory action of compounds of the invention toward PDE1 or its isoforms, follows. The HTRF PDE1 assay utilized the HTRF (Homogenous Time Resolved Fluorescence) technology, which is based on the competition between unlabeled cyclic nucleotide and cyclic nucleotide labeled with XL665 for the binding to cyclic nucleotide-specific antibody labeled with cryptate. The HTRF signal is thus inversely proportional to the concentration of cyclic nucleotide being measured. Since phosphodiesterases break down cyclic nucleotides the HTRF signal was used to determine PDE activity. The Cisbio cGMP HTRF assay kit (Cat no: 62GM2PEC) was utilized. Cyclic GMP was diluted to 200 nM in HTRF assay buffer (1 mM CaCl2, 10 mM MgCl2, 10 mM Tris-HCl, 0.1% BSA, pH 7.4). 10 μl of compound or DMSO was diluted in 200 nM cyclic GMP solution and added to wells of a 96 well white plate to give 100 nM cyclic GMP in 1% DMSO final concentration. PDE (1A3, 1B or IC) was diluted to 2× working concentration in HTRF assay buffer with 2 μg/ml calmodulin, and 10 μl was added to initiate the reaction. The plate was then incubated for 45 minutes at 37° C. d2-Labelled cyclic GMP and anti-cGMP cryptate were diluted in 50 mM phosphate buffer, 0.8 M KF, 1% Triton X100, 0.2% BSA, pH 7.0. Following incubation 10 μl d2-cGMP, then 10 μl anti cGMP cryptate were added to each well and the plate was incubated for 45 minutes at room temperature. The plate was then read on Perkin Elmer Victor at 2 different FRET readings ex/emm 340 nm/665 nm and 340 nm/615 nm. Compounds having an IC50 of <1 μM, are denoted as +++. Compounds having an IC50 of 1−10 μM, are denoted as ++. Compounds having an IC50 of 10-100 μM, are denoted as +.
(In general: Time-resolved FRET reads energy transfer from a long-lived donor to a nearby acceptor.)
The compound `CC1CN(Cc2ccc(C#N)cc2)c2nn3c(C(C)C)ncc3c(=O)n2C1` (stereo not drawn) [Example 65] showed an IC50 below 1000 nM.
Compound `CCCN1c2nn3c(C4CCOCC4)ncc3c(=O)n2CC[C@@H]1c1ccc(Cl)cc1` [Example 71] gave an IC50 below 1000 nM.
Next, `CC(C)c1ncc2c(=O)n3c(nn12)N(C)C(c1ccc(Cl)cc1)CC3` (stereo not drawn) [Example 72]: below 1000 nM.
The figure for `CC(C)n1ncc2c(=O)n3c(nc21)N(CC1CCOCC1)CC3` [Example 73] is below 1000 nM; for `CC(C)n1ncc2c(=O)n3c(nc21)N(Cc1ccc(C#N)cc1)CC3` [Example 74] it is below 1000 nM; for `CC(C)n1ncc2c(=O)n3c(nc21)N(Cc1ccc(-c2cccc(F)n2)cc1)CC3` [Example 76] it is below 1000 nM.
In the case of `CC(C)CN1CCCn2c1nc1c(cnn1C(C)C)c2=O` [Example 77], the IC50 is below 1000 nM.
`CC(C)n1ncc2c(=O)n3c(nc21)N(Cc1ccc(C(F)(F)F)cc1)CCC3` [Example 80] came in with an IC50 below 1000 nM.
The figure for `CC(C)c1ncnc2c(=O)n3c(nc12)N(Cc1ccc(C#N)cc1)CC3` [Example 82] is below 1000 nM; for `CC(C)c1ncnc2c(=O)n3c(nc12)N(Cc1ccc(C(F)(F)F)cc1)CC3` [Example 83] it is below 1000 nM.
On to `CC(C)c1ncc2c(=O)n3c(nn12)N(C)[C@@H](c1ccc(Cl)cn1)C3` [Example 84, (R)-2-(5-Chloropyridin-2-yl)-8-isopropyl-1-methyl-2,3-dihydrodiimidazo[2,1-c:1′,5′-f][1,2,4]triazin-5(1H)-one], for which the IC50 was below 1000 nM.
As for `CC(C)c1ncc2c(=O)n3c(nn12)N(C)[C@H](c1ccc(Cl)cn1)C3` [Example 85, (S)-2-(5-Chloropyridin-2-yl)-8-isopropyl-1-methyl-2,3-dihydrodiimidazo[2,1-c:1′,5′-f][1,2,4]triazin-5(1H)-one], the IC50 was below 1000 nM.
Compound `COc1ccc(C2Cn3c(nn4c(C5CCOCC5)ncc4c3=O)N2C)cc1` (stereo not drawn) [Example 86] yielded an IC50 below 1000 nM.
Regarding `COc1ccc(C2Cn3c(nn4c(C5CCOCC5)ncc4c3=O)N2C)cc1` (stereo not drawn) [Example 87], the IC50 was 1000 to 10000 nM.
Turning to `CCc1ccc(C2Cn3c(nn4c(C5CCOCC5)ncc4c3=O)N2CC)cn1` (stereo not drawn) [Example 88], the IC50 is below 1000 nM.
Consider `CCc1ccc([C@@H]2Cn3c(nn4c(C5CCOCC5)ncc4c3=O)N2CC)cn1` [Example 89], for which the IC50 lay within 1000 to 10000 nM.
The figure for `CCCN1c2nn3c(C4CCOCC4)ncc3c(=O)n2C[C@@H]1c1ccc(CC)nc1` [Example 90] is below 1000 nM.
`CCCN1c2nn3c(C4CCOCC4)ncc3c(=O)n2C[C@H]1c1ccc(CC)nc1` [Example 91] registered an IC50 of 1000 to 10000 nM.
In the case of `CCc1ccc([C@H]2Cn3c(nn4c(C5CCOCC5)ncc4c3=O)N2CC(C)C)cn1` [Example 92], the IC50 lay within 1000 to 10000 nM.
Compound `CCc1ccc([C@@H]2Cn3c(nn4c(C5CCOCC5)ncc4c3=O)N2CC(C)C)cn1` [Example 93] displayed an IC50 of 10000 to 100000 nM.
Compound `CCc1ccc(C2Cn3c(nn4c(C(C)C)ncc4c3=O)N2CC)cn1` (stereo not drawn) [Example 95] came in with an IC50 of 1000 to 10000 nM.
Compound `CCCN1c2nn3c(C(C)C)ncc3c(=O)n2C[C@@H]1c1ccc(CC)nc1` [Example 96] displayed an IC50 of 1000 to 10000 nM.
Next, `CCCN1c2nn3c(C(C)C)ncc3c(=O)n2CC1c1ccc(CC)nc1` (stereo not drawn) [Example 97]: 1000 to 10000 nM; `CCc1ccc(C2Cn3c(nn4c(C(C)C)ncc4c3=O)N2CC(C)C)cn1` (stereo not drawn) [Example 98]: 1000 to 10000 nM; `CCc1ccc(C2Cn3c(nn4c(C(C)C)ncc4c3=O)N2CC(C)C)cn1` (stereo not drawn) [Example 99]: 1000 to 10000 nM.
In turn, `CC(C)c1ncc2c(=O)n3c(nn12)N(CCCCO)CC3` [Example 100, 1-(4-Hydroxybutyl)-8-isopropyl-2,3-dihydro-1H,5H-diimidazo[2,1-c:5′,1′-f][1,2,4]triazin-5-one] gave an IC50 below 1000 nM.
The figure for `CC(C)c1ncc2c(=O)n3c(nn12)N(CCCCCO)CCC3` [Example 101, 1-(5-Hydroxypentyl)-9-isopropyl-1,2,3,4-tetrahydro-6H-imidazo[5,1-f]pyrimido[2,1-c][1,2,4]triazin-6-one] is below 1000 nM; for `CC(C)c1ncc2c(=O)n3c(nn12)N(CCCCCO)CC3` [Example 102] it is below 1000 nM.
`CC(C)c1ncc2c(=O)n3c(nn12)N(CCCCCCO)CC3` [Example 103] had an IC50 below 1000 nM.
Turning to `CC(C)c1ncc2c(=O)n3c(nn12)N(CCOCCO)CC3` [Example 104], the IC50 is below 1000 nM.
`CC(C)c1ncc2c(=O)n3c(nn12)N(CCCCO)CCC3` [Example 105] returned an IC50 below 1000 nM.
As to `CC(C)c1ncc2c(=O)n3c(nn12)N(CCOCCO)CCC3` [Example 107], the IC50 lay within 1000 to 10000 nM.
`O=c1c2cnc(C3CCOCC3)n2nc2n1CCN2CCCCCO` [Example 108] showed an IC50 below 1000 nM.
Next, `O=c1c2cnc(C3CCOCC3)n2nc2n1CCCN2CCCCCO` [Example 109]: below 1000 nM.
Take `CC(C)c1ncc2c(=O)n3c(nn12)N(CCCC(O)CO)CC3` (stereo not drawn) [Example 110, 1-(4,5-Dihydroxypentyl)-8-isopropyl-2,3-dihydro-1H,5H-diimidazo[2,1-c:5′,1′-f][1,2,4]triazin-5-one]: the IC50 is below 1000 nM.
In the case of `CC(C)c1ncc2c(=O)n3c(nn12)N(CCCC(O)CO)CCC3` (stereo not drawn) [Example 111, 1-(4,5-Dihydroxypentyl)-9-isopropyl-1,2,3,4-tetrahydro-6H-imidazo[51-f]pyrimido[2,1-c][1,2,4]triazin-6-one], the IC50 is below 1000 nM.
Compound `CC(C)c1ncc2c(=O)n3c(nn12)N(CC1CCN(C)CC1)CCC3` [Example 112, 9-Isopropyl-1-[(1-methyl-4-piperidinyl)methyl]-1,2,3,4-tetrahydro-6H-imidazo[5,1-f]pyrimido[2,1-c][1,2,4]triazin-6-one] gave an IC50 of 1000 to 10000 nM.
Consider `CC(C)c1ncc2c(=O)n3c(nn12)N(CCC1CCNCC1)CCC3` [Example 113, 9-Isopropyl-1-[2-(4-piperidinyl)ethyl]-1,2,3,4-tetrahydro-6H-imidazo[5,1-f]pyrimido[2,1-c][1,2,4]triazin-6-one], for which the IC50 was in the range of 1000 to 10000 nM.
`CC(C)c1ncc2c(=O)n3c(nn12)N(CCC1CCN(C)CC1)CCC3` [Example 114, 9-Isopropyl-1-[2-(1-methyl-4-piperidinyl)ethyl]-1,2,3,4-tetrahydro-6H-imidazo[5,1-f]pyrimido[2,1-c][1,2,4]triazin-6-one] gave an IC50 below 1000 nM.
Regarding `CC(C)c1ncc2c(=O)n3c(nn12)N(CCc1cccc(C#N)c1)CCC3` [Example 115, 3-(2-(9-Isopropyl-6-oxo-2,3,4,6-tetrahydro-1H-imidazo[1,5-f]pyrimido[2,1-c][1,2,4]triazin-1-yl)ethyl)benzonitrile], the IC50 was below 1000 nM.
The compound `N#Cc1ccc(CCN2CCCn3c2nn2c(C4CCOCC4)ncc2c3=O)cc1` [Example 116, 4-{2-[6-Oxo-9-(tetrahydro-2H-pyran-4-yl)-3,4-dihydro-6H-imidazo[5,1-f]pyrimido[2,1-c][1,2,4]triazin-1(2H)-yl]ethyl}benzonitrile] had an IC50 below 1000 nM.
With `N#Cc1cccc(CCN2CCCn3c2nn2c(C4CCOCC4)ncc2c3=O)c1` [Example 117], the IC50 was 10000 to 100000 nM.
In turn, `N#Cc1cccc(CCCN2CCCn3c2nn2c(C4CCOCC4)ncc2c3=O)c1` [Example 118] yielded an IC50 below 1000 nM.
The figure for `N#Cc1ccc(CCCN2CCCn3c2nn2c(C4CCOCC4)ncc2c3=O)cc1` [Example 119] is below 1000 nM; for `CC1CN(CCCc2ccccn2)c2nn3c(C(C)C)ncc3c(=O)n2C1` (stereo not drawn) [Example 121] it is below 1000 nM.
In turn, `CC(C)c1ncc2c(=O)n3c(nn12)N(CCCc1cccc(F)c1)CCC3` [Example 122] came in with an IC50 below 1000 nM.
With `CC(C)c1ncc2c(=O)n3c(nn12)N(C(=O)CC1CCOCC1)CCC3` [Example 123, 9-Isopropyl-1-(tetrahydro-2H-pyran-4-ylacetyl)-1,2,3,4-tetrahydro-6H-imidazo[5,1-f]pyrimido[2,1-c][1,2,4]triazin-6-one], the IC50 lay within 1000 to 10000 nM.
`CC(C)c1ncc2c(=O)n3c(nn12)N(C(=O)CCC1CCOCC1)CCC3` [Example 124, 9-Isopropyl-1-(3-(tetrahydro-2H-pyran-4-yl)propanoyl)-3,4-dihydro-1H-imidazo[1,5-f]pyrimido[2,1-c][1,2,4]triazin-6(2H)-one] had an IC50 of 10000 to 100000 nM.
The compound `CC(C)c1ncc2c(=O)n3c(nn12)N(C(=O)CCN1CCOCC1)CCC3` [Example 125, 9-Isopropyl-1-(3-morpholinopropanoyl)-3,4-dihydro-1H-imidazo[1,5-f]pyrimido[2,1-c][1,2,4]triazin-6(2H)-one] returned an IC50 of 1000 to 10000 nM.
The compound `CC(C)c1ncc2c(=O)n3c(nn12)OC(c1ccccc1)CC3` (stereo not drawn) [Example 126, 9-Isopropyl-2-phenyl-3,4-dihydroimidazo[5,1-f][1,3]oxazino[2,3-c][1,2,4]triazin-6(2H)-one] came in with an IC50 below 1000 nM.
Next, `CC(C)c1ncc2c(=O)n3c(nn12)OC(c1ccc(Cl)cc1)CC3` (stereo not drawn) [Example 127]: below 1000 nM.

Source of the values: US20170273985A1, “TRICYCLIC DERIVATIVE” (Sunovion Pharmaceuticals Inc., priority 2014, published 2017).
